Entries after “also recorded” stand apart in the source; their conditions may differ. Values belong to the compound of their own block, whether it stands above or below them. Ends that are not written are not given here.
Experiments:
[1] = system: Src (Tyr 419 phosphorylation); test: Immunoblot of p-Src Y419; assay type: cell-based, human; details: CRT-MG cells; PTPi IV 0–10 µM, 30 min; 5 mM H2O2, 10 min; n = 3
Experimental: (§1) Cells were plated and transfected with green fluorescence protein (GFP) siRNA (Samchully Pharm Co. Ltd., Seoul, Korea) as a control group and human CSK siRNA and human SHP-2 siRNA from Bioneer (Daejeon, Korea) using Lipofectamine RNAiMAX (Invitrogen, Carlsbad, CA, USA) according to the manufacturer’s instructions to achieve a final concentration of 300 nM.
(§2) Figure 7 SHP-2 and CSK reciprocally regulate H2O2-induced Src activation. […] Tubulin was evaluated as a loading control. Bottom panel, Densitometric quantification of p-Src Y419 levels (empty bars) and p-Src Y530 levels (filled bars), normalized to the level of total Src. Results are expressed as percentage of H2O2-treated values in control siRNA presented as mean ± SD. (*p<0.05 vs. H2O2-treated cells transfected with control siRNA; #p<0.05 between SHP-2 siRNA-transfected cells and CSK siRNA-transfected cells; n = 3). (B) Inhibition of SHP-2 by PTPi IV attenuated the H2O2-induced activation of the Src signaling pathway. CRT-MG cells were treated with 5 mM H2O2 or not for 10 min in the presence of 5 or 10 µM PTPi IV for 30 min, and lysed in cold-RIPA buffer. Antibodies against p-SHP-2, SHP-2, p-Src, Src, p-FAK, FAK, p-ERK, ERK, and tubulin were used for immunoblotting. Bottom panel, Densitometric quantification of p-Src Y419 levels (empty bars) and p-Src Y530 levels (filled bars), normalized to the level of total Src. […] (p, phospho).

[2] = system: Src (Tyr 530 phosphorylation); test: Immunoblot of p-Src Y530; assay type: cell-based, human; details: CRT-MG cells; PTPi IV 0–10 µM, 30 min; 5 mM H2O2, 10 min; n = 3
Experimental: as §1, §2

ERK phosphorylation = test: Immunoblot of p-ERK; assay type: cell-based, human; details: CRT-MG cells; PTPi IV 5 or 10 µM, 30 min; 5 mM H2O2, 10 min
Experimental: as §1, §2

FAK phosphorylation = test: Immunoblot of p-FAK; assay type: cell-based, human; details: CRT-MG cells; PTPi IV 5 or 10 µM, 30 min; 5 mM H2O2, 10 min
Experimental: as §2

[3] = system: SHP-2 (Y542 and Y580 phosphorylation); test: Immunoblot of p-SHP-2 Y542 and Y580; assay type: cell-based, human; details: CRT-MG cells; PTPi IV 5 or 10 µM, 30 min; 5 mM H2O2, 10 min
Experimental: as §2

[4] = system: CSK binding to p-caveolin-1 peptide; test: Flow cytometric competitive binding assay (bound CSK on p-caveolin-1 peptide conjugated beads); parameters: species or system human; details: 10 µg recombinant CSK with SHP-2 protein 1–100 µg; flow cytometry; repeated twice
Experimental: (§3) Human SHP-2 and CSK fusion constructs were produced by consecutively subcloning the protein coding regions of SHP-2 and CSK into the pGEX-6P-1 vector (GE healthcare, Piscataway, NJ, USA). Using these constructs, human SHP-2 and CSK were overexpressed in Escherichia coli (BL21) as soluble. Briefly, the transformed bacteria were grown in LB medium with 0.1 mg/ml ampicillin at 37°C to an A600 of 0.6, and then cultured for an additional overnight at 27°C after being induced with 0.5 mM IPTG (Duchefa Biochemie, Netherlands). The cells were harvested by centrifugation at 8000 g for 20 min, resuspended in PBS pH 7.4, and then disrupted by ultrasonication. The supernatant was purified with glutathione agarose 4B (Incospharm, Daejeon, South Korea) in PBS pH 7.4. The bound proteins were eluted with a linear gradient 10 mM glutathione in 50 mM Tris (pH 8.0). All proteins were concentrated with a Centricon apparatus (Miliipore, Darmstadt, Germany). Proteins were quantitated with the Bradford assay, then filtered and stored at −70°C until use. […]
Figure 6 Small interfering RNA targeting CSK facilitates H2O2-mediated binding between caveolin-1 and SHP-2. […] Fluorescent intensities were measured by Accuri C6 flow cytometer.

recombinant GST-SHP-2 = biological target: T1, recombinant GST-SHP-2 (Homo sapiens, UniProt Q06124); test: Surface plasmon resonance, rGST-SHP-2; assay type: binding
T1 construct: purchased Abnova (Taipei, Taiwan)
T1 sequence (Q06124 1-593): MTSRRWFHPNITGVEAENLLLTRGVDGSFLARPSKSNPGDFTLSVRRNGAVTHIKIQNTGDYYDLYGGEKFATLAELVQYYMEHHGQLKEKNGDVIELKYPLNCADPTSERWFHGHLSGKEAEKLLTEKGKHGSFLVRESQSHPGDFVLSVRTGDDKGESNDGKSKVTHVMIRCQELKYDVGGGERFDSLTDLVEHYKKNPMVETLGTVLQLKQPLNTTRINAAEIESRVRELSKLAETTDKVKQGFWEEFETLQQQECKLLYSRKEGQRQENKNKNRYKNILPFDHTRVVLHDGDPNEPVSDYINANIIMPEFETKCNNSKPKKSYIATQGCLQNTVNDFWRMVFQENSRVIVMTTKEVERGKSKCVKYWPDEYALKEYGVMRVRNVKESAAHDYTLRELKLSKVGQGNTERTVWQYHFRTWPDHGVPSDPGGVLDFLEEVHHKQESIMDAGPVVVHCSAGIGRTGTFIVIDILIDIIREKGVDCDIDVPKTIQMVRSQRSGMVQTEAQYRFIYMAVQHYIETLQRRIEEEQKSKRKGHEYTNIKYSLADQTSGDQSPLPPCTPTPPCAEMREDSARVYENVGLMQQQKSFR
Experimental: (§4) SPR was performed on a SPRmicro system (K-MAC, Daejeon, Korea). A G1 chip (bare surface gold chip) was dipped into a 3 mM N-hydroxylsuccinimide self-assembled monolayer to form covalent bonds among protein amine groups. After washing with ethanol, the chip was purged with N2 gas. Recombinant GST-SHP-2 or GST-CSK was mixed with 20% ethylene glycol and then spotted onto the chip. Ligands were reacted on room temperature for 12 h to allow the ligands to become fixed onto the chip. After the reaction, the […] by washing with 1×Tris-buffered saline (TBS), and purged with N2 gas. SPR signal baselines were stabilized using 1×TBS running buffer, and different dilutions of caveolin-1 phosphopeptides (Cav-1 pY 14, GHL-pY-TVPIREQGN) in buffer were injected at a flow rate of 20 µL/min. Response unit (RU) alterations following sample reactions were analyzed by comparing affinities to the chip surface. Experiments were conducted by switching from samples immobilized on the chip (Cav-1 pY 14) to injected samples (rGST-CSK or rGST-SHP-2). […] Equilibrium binding curves and RU values are shown.
(§5) Figure 5 SPR and flow cytometric analyses of SHP-2 and CSK binding to phosphorylated-Tyr peptides of caveolin-1. […] After stringent wash, bound SHP-2 or CSK to caveolin-1 peptide conjugated beads were measured by Accuri C6 flow cytometer.

recombinant GST-CSK = test: Surface plasmon resonance, rGST-CSK; assay type: binding; details: rGST-CSK immobilized on G1 chip; peptide 10 to 1,000 µg/mL injected, 20 µL/min, 1×TBS; repeated twice
Experimental: as §4, §5

[5] = system: recombinant SHP-2 protein; test: Bead-based flow cytometric binding assay, SHP-2; parameters: species or system human; details: caveolin-1 (1–50 a.a.) peptide on carboxyl beads; SHP-2 protein 1–10 µg, 1 h, RT; flow cytometry; repeated twice
Experimental: as §3, §5

recombinant CSK protein = test: Bead-based flow cytometric binding assay, CSK; parameters: species or system human; details: caveolin-1 (1–50 a.a.) peptide on carboxyl beads; CSK protein 1–10 µg, 1 h, RT; flow cytometry; repeated twice
Experimental: as §3, §5

Compound: CC(C)(c1ccc(NS(=O)(=O)C(F)(F)F)cc1)c1ccc(C(C)(C)c2ccc(NS(=O)(=O)C(F)(F)F)cc2)cc1 [PTPi IV]
H2O2-mediated phosphorylation of Src at Tyr 419 [1]: dose-dependent decrease
H2O2-mediated phosphorylation of Src at Tyr 530 [2]: no significant change
ERK phosphorylation (ERK phosphorylation): strongly inhibited; also recorded: reduced
FAK phosphorylation (FAK phosphorylation): strongly inhibited; also recorded: reduced
SHP-2 phosphorylation at Y542 and Y580 [3]: significantly reduced

Compound: SHP-2 protein: human SHP-2 overexpressed in Escherichia coli (BL21) from pGEX-6P-1, glutathione agarose purified
amount of bound CSK on p-caveolin-1 peptide conjugated beads [4]: reduced by adding increasing concentrations of SHP-2 protein

SPR binding affinity (recombinant GST-SHP-2; rGST-SHP-2 immobilized on G1 chip, peptide 10 to 1,000 µg/mL injected, 20 µL/min, 1×TBS, repeated twice): high affinity
SPR binding affinity (recombinant GST-CSK): high affinity
Compound: GHL-pY-TVPIREQGN [Cav-1 pY 14, synthetic peptide phosphorylated at a Tyr residue corresponding to Tyr 14 of caveolin-1]
difference in kinetic rates or RUs, rGST-SHP-2 versus rGST-CSK (recombinant GST-SHP-2; rGST-SHP-2 compared with rGST-CSK, immobilized on G1 chip, peptide 10 to 1,000 µg/mL): no significant difference in their kinetic rates or RUs

binding of SHP-2 to peptide conjugated beads [5]: significantly bound
binding of CSK to peptide conjugated beads (recombinant CSK protein): significantly bound
Compound: p-caveolin-1 peptide: Fifty-amino acid-long synthetic peptides of caveolin-1 (1–50 a.a.) conjugated to carboxyl beads using EDC (MSGGKYVDSEGHLYTVPIREQGNIYKPNNKAMADELSEKQVYDAHTKEID; also: phosphorylated, sites not given here; UniProt Q03135 1-50, looked up, fragment)

— PMC3954793, “SHP-2 Binds to Caveolin-1 and Regulates Src Activity via Competitive Inhibition of CSK in Response to H2O2 in Astrocytes” (PLoS ONE, 2014)
